Assay: Primary eye irritation, protocol FHSLA 16 CFR 1500.42
Format: in vivo
Details: products tested at 25% actives
Description: Eye irritation is a major concern in the formulation of personal care products, particularly when working with quats. Primary eye irritation using the protocol outlined in FHSLA 16 CFR 1500.42 The products were tested at 25% actives.

Row | Compound | Primary eye irritation rating | Primary eye irritation score
1 | CCCCCCCCCCCCCCCCCC[N+](C)(C)Cc1ccccc1.[Cl-] [Stearalkonium Chloride] | Severely Irritating | 116.5
2 | CCCCCCCCCCCCCCCC[N+](CC)(CC)CC.[Cl-] [Cetyltriethyl ammonium Chloride] | Severely Irritating | 115.0
3 | CCCCCCCCCCCCCCCC[N+](C)(C)C.[Cl-] [Cetyltrimethyl ammonium Chloride] | Severely Irritating | 106.0
